# Publication PMC8987933 (Frontiers in Nutrition, 2022)
# Where two headings read alike, the source gives them in different places.
# Legend:
# [1] = cited from earlier work
# [2] = with green tea; 10 healthy volunteers; cited from earlier work
# human P-gp = conditions: cited from earlier work
# OATP2B1 = conditions: cited from earlier work
# OATP1B3 = conditions: in vitro studies; cited from earlier work
# OATP1A2 = conditions: cited from earlier work
# human BCRP = conditions: cited from earlier work
# clinical = conditions: human, in vivo
# Text: Healthy Chinese male subjects aged 18–45 years were recruited from a pool of over 200 healthy volunteers who had been genotyped for the ABCG2 421C>A (rs2231142) polymorphism. A total of 20 healthy Chinese male subjects were selected for the rosuvastatin pharmacokinetic study based on the ABCG2 421C>A genotypes. The study was reviewed and approved by the Joint Chinese University of Hong Kong-New Territories East Cluster Clinical Research Ethics Committee with reference number CRE-2010.524-T. The study was performed in accordance with the ethical standards laid down in the Declaration of Helsinki and subsequent revisions. Written informed consent was obtained from each participant.
# All subjects were required to abstain from any prescription or non-prescription medications 2 weeks before and throughout the study. They were not allowed to take alcohol, tea, grapefruit juice, caffeine, soybean milk or dietary supplements and herbal products 2 weeks before and throughout the entire study period. They were also not allowed to smoke 2 weeks before and throughout the study. Subjects were requested to fast for 10 h before and 4 h after drug administration during the blood sampling sessions. Meals were standardized and consumed at 4 h and 10 h post-dosing. Drinking water was not allowed from 1 h pre-dose to 1 h post-dose except that needed for drug dosing at the time of blood sampling sessions. Subjects were asked to report any adverse effects at each visit to the study center.
# This was an open-label, three-phase randomized crossover study. […] The herbal extracts were present as a powder which was taken in 150 ml water at room temperature. Blood samples were taken at intervals from 0 to 24 h on the rosuvastatin dosing days. During the study, subjects were frequently reminded of the requirements for diet restrictions, and they were requested to record their daily food intake, including the main meals, snacks and beverages of the day by using a simple food diary, which can help to monitor the food compliance during the study.
# Plasma concentrations of rosuvastatin were determined by Liquid Chromatography-Tandem Mass Spectrometry (LC-MS/MS) using the corresponding isotopically labeled compound as an internal standard as described ([28]). The plasma samples were prepared using liquid–liquid extraction with diethyl ether. Chromatographic separation was accomplished on an Xterra MS C18 column (50 × 2.1 mm, 5 μm; Waters, Milford, MA). The mobile phase consisted of a gradient mixture of 0.015 mmol/L ammonium acetate in water (mobile phase A) and methanol (mobile phase B) at a flow rate of 0.4 mL/min. The gradient started at 20% mobile phase B for 0.5 min with a subsequent fast gradient to 100% mobile phase B in 1 min and maintained for another 2.5 min. The gradient was then returned to the initial mobile phase concentration in a chromatographic run of 8 min. MS/MS detection with quantification transition of m/z 480.1–418.1 and qualification transition of m/z 480.1–340.1 was used for rosuvastatin. The lower limit of quantification of rosuvastatin was 0.05 μg/L by using 200 μL plasma.
# The pharmacokinetic parameters of rosuvastatin were calculated using non-compartmental methods with the aid of the computer program WinNolin (version 2.1, Pharsight Corporation). The maximum plasma concentration (Cmax) and time to Cmax (tmax) were obtained directly from the observed concentration-time data. The terminal elimination rate constant (λZ) was estimated by linear regression of the terminal portion of the concentration-time curve, and the elimination half-life (t1/2) was calculated as 0.693/λZ. Systemic exposure to rosuvastatin was evaluated by calculating the AUC using the linear trapezoidal rule and AUC0−∞ was calculated as AUC0−∞ = AUC0−t + Ct/Kel where Ct is the last quantifiable concentration. The oral clearance (CL/F) was calculated as Dose/AUC0−∞.
# [3] = cited from earlier work; remark: listed apart in the source
# [4] = cited from earlier work; remark: listed apart in the source
# [5] = cited from earlier work; remark: listed apart in the source
# OATP1B1 = conditions: cited from earlier work
# [6] = pre-treatment with green tea extract (400 mg/kg) vs control
# [7] = rosuvastatin administered with 300 mg pure crystalline EGCG (single dose)
molecule,measurement,setting,value
CC(C)(C)NCC(O)COc1cccc2c1CC(O)C(O)C2 (centres unmarked) [nadolol],reduction in AUC of nadolol,[1]; EGCG alone (150 mg/kg),73%
same,reduction in Cmax of nadolol,[1]; EGCG alone (150 mg/kg),81%
same,reduction in AUC of nadolol,[1]; [6],74%
same,reduction in Cmax of nadolol,[1]; [6],85%
same,decrease of AUC of nadolol,[2],85.0%
same,decrease of Cmax of nadolol,[2],85.3%
(–)-epigallocatechin-3-gallate [EGCG],effect on P-gp-mediated dasatinib efflux,human P-gp,no significant effect
same,effect on OATP2B1-mediated uptake of estrone-3-sulfate,OATP2B1; concentration-dependent,inhibited
same,effect on OATP1B3,OATP1B3,activate
same,effect on OATP1A2-mediated uptake of estrone-3-sulfate,OATP1A2; concentration-dependent,inhibited
same,effect on BCRP-mediated dasatinib efflux,human BCRP,no significant effect
"Oc1cc(O)c2c(c1)O[C@H](c1ccc(O)c(O)c1)[C@H](O)C2 [EC, epicatechin]",effect on P-gp-mediated dasatinib efflux,human P-gp,no significant effect
same,effect on BCRP-mediated dasatinib efflux,human BCRP,no significant effect
"Oc1cc(O)c2c(c1)O[C@H](c1cc(O)c(O)c(O)c1)[C@H](O)C2 [EGC, epigallocatechin]",effect on P-gp-mediated dasatinib efflux,human P-gp,no significant effect
same,effect on BCRP-mediated dasatinib efflux,human BCRP,no significant effect
"CC(C)c1nc(N(C)S(C)(=O)=O)nc(-c2ccc(F)cc2)c1/C=C/[C@@H](O)C[C@@H](O)CC(=O)O [Rosuvastatin, rosuvastatin]",Clearance (oral clearance CL/F),"clinical; po, 10 mg",85.1 (28.4) L/h
same,AUC0−24h GMR (90%CI),clinical; male,0.78
same,Cmax GMR (90%CI),clinical; male,0.71
same,AUC(0-inf),"clinical; male, 10 mg",118 ng·h/mL
same,AUC(0-t),"clinical; male, 10 mg",109 ng·h/mL
same,Cmax,"clinical; male, 10 mg",13.1 (32.2) μg/L
same,half-life,"clinical; male, 10 mg",6.21 h
same,tmax,"clinical; male, 10 mg","3.0 (1.5, 6.0) h"
same,change of systemic exposure of rosuvastatin after baicalin compared to placebo,[3]; SLCO1B1*1b/*1b subjects,−41.9%
same,change of systemic exposure of rosuvastatin after baicalin compared to placebo,[3]; SLCO1B1*1b/*15 subjects,−23.9%
same,systemic exposure of rosuvastatin vs baseline before EGCG,[4]; after giving EGCG daily for 10 days,not significantly different from the baseline value
same,reduction of AUC up to 8 h,[4]; [7],19%
same,reduction of Cmax,[4]; [7],15%
CCN(CC)CCNC(=O)c1c(C)[nH]c(/C=C2\C(=O)Nc3ccc(F)cc32)c1C [sunitinib],effect of EGCG on bioavailability of sunitinib,[5]; EGCG and sunitinib taken together,reduced the bioavailability
same,effect of EGCG on the pharmacokinetics of sunitinib,[5]; EGCG taken 8 or 4 h before sunitinib administration,no effect
"O=C(O[C@@H]1Cc2c(O)cc(O)cc2O[C@@H]1c1ccc(O)c(O)c1)c1cc(O)c(O)c(O)c1 [ECG, epicatechin gallate]",effect on P-gp-mediated dasatinib efflux,human P-gp,no significant effect
same,inhibition of OATP2B1,OATP2B1,can inhibit
same,inhibition of OATP1A2,OATP1A2,can inhibit
same,inhibition of OATP1B1,OATP1B1,can inhibit
same,effect on BCRP-mediated dasatinib efflux,human BCRP,no significant effect
